Data reported in patent publication US6753348B2, “BTK inhibitors and methods for their identification and use” (Parker Hughes Institute, priority 1998, dated 2004).

Assays:
[1] = target: BTK-Fas association in NALM-6-UM1 cells (Homo sapiens, UniProt Q06187); test: BTK-Fas association, Western blot of BTK immune complexes; assay type: cell-based; conditions: 10 μM x 4 hours
Procedure: FIGS. 6A-6D: Apoptotic Responses of Human B-lineage Leukemia Cells to Fas Ligation in Relationship to BTK Expression and Function. Anti-BTK and anti-Actin dual-antibody Western blot analysis of whole cell lysates from BTK-positive NALM-6-UM1 (N6-U1) and BTK-deficient RAMOS-1 cells (FIG. 5A). Anti-Fas Western blot analysis of the same cell lysates. [B] Cells were harvested 24 hours after exposure to anti-Fas antibody at 0.1 μg/ml or 1.0 μg/ml concentrations and DNA from Triton-X-100 lysates was analyzed for fragmentation, as described by Uckun, F. M., et al. (1996) Science 273, 1096-1100; and Uckun, F. M., et al. (1995) Science 267, 886-91. […] [C.1] and [C.2] Anti-BTK and anti-Fas Western blot analysis of whole cell lysates from N6-U1 cells treated with the BTK inhibitor LMA-13 (10 μM×4 hours). [C.3] Anti-Fas and Anti-BTK Western blot analysis of anti-BTK antibody immunoprecipitated BTK immune complexes from untreated (=−Inhibitor) and LMA-13-treated (10 μM×4 hours) (=+Inhibitor) N6-U1 cells. [D]. N6-U1 cells were harvested 24 hours after exposure to anti-Fas antibody at 0.1 μg/ml or 1.0 μg/ml concentrations and DNA from Triton-X-100 lysates was analyzed for fragmentation, as described by Uckun, F. M., et al. (1996) Science 273, 1096-1100; and Uckun, F. M., et al. (1995) Science 267, 886-91. […]

[2] = target: BTK in B18.2 cells (Homo sapiens, UniProt Q06187); test: Cellular BTK activity, immune complex kinase assay after treatment of cells; assay type: cell-based; conditions: treatment of B18.2 cells
BTK in B18.2 cells, sequence (Q06187 whole entry): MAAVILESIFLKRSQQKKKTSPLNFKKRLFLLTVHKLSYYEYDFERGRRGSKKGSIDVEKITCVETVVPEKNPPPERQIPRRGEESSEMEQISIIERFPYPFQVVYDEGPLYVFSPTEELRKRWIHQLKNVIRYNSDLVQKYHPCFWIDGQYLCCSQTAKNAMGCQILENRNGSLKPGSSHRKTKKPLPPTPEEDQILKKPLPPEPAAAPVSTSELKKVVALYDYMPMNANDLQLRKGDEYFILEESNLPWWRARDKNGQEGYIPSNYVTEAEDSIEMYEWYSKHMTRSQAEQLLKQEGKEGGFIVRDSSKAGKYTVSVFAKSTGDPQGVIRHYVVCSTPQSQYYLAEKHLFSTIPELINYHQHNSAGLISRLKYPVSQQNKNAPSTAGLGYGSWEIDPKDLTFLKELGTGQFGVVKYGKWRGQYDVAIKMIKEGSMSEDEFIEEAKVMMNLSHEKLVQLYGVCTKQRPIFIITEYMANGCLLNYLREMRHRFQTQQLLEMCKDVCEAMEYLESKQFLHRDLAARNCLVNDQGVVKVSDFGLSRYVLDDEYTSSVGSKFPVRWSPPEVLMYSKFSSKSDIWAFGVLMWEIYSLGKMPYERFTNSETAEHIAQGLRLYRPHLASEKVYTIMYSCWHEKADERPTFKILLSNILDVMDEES
Text: PIU: Phosphoimager units; DSU, densitometric scanning units; CON, control.
Polyclonal antibodies to BTK were generated by immunization of rabbits with glutathione S-transferase (GST) fusion proteins (Pharmacia Biotech Inc.) containing the first 150 amino acids of BTK. The monoclonal anti-Fas antibody (F22120) was obtained from the Transduction Laboratories, Inc. (Lexington, Ky.). […] Following electrophoresis, kinase gels were dried onto Whatman 3M filter paper and subjected to phosphoimaging on a Molecular Imager (Bio-Rad, Hercules, Calif.) as well as autoradiography on film. Similarly, all chemiluminescent BTK Western blots were subjected to three dimesional densitometric scanning using the Molecular Imager and Imaging Densitometer using the Molecular Analyst/Macontosh version 2.1 software following the specifications of the manufacturer (Bio-Rad). For each drug concentration, a BTK kinase activity index was determined by comparing the ratios of the kinase activity in phosphorimager units (PIU) and density of the protein bands in densitometric scanning units (DSU) to those of the baseline sample and using the formula: Activity Index=[PIU of kinase band/DSU of BTK protein band]test sample: [PIU of kinase band/DSU of BTK protein band]baseline control sample. […]

BTK-Fas association in NALM-6-UM1 cells, sequence (Q06187 2-659): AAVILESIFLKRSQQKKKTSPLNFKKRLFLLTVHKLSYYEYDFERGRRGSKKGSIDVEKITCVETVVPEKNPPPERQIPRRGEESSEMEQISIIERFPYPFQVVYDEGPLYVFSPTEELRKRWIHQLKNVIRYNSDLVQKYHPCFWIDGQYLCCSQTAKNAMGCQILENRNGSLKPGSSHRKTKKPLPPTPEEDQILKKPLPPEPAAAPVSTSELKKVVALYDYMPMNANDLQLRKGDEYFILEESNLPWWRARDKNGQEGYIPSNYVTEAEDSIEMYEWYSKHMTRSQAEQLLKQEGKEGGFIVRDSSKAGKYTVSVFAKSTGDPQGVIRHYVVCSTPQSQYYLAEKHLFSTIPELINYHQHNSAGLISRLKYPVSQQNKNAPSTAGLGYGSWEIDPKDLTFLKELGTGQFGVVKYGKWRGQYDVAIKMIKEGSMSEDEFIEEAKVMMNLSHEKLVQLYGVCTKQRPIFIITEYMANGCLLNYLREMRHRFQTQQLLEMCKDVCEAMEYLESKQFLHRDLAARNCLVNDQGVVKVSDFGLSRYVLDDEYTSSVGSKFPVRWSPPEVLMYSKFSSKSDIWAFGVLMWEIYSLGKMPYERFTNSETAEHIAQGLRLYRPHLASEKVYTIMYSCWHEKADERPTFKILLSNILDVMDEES

C/C(O)=C(\C#N)C(=O)Nc1cc(Br)ccc1Br [LFM-A13, α-Cyano-β-hydroxy-β-methyl-N-(2,5-dibromophenyl)-propenamide]
BTK-Fas association [1]: abrogates the BTK-Fas association | cellular BTK activity [2]: dose-dependent inhibition of cellular BTK activity
